Results from US11780842B2, “TYK2 pseudokinase ligands” (Ventyx Biosciences, Inc., priority 2019, dated 2023).
pIC50: −log10 of the molar value.

System: IFN-a/Jak1Tyk2
Assay: Co-stimulation assay in lysed whole blood: IFNa (JAK1/TYK2) stimulated STAT1 phosphorylation
Type: cell-based
Settings: lysed human whole blood, IFNa 100 ng/mL (co-stimulated with GM-CSF 10 ng/mL), pSTAT1 by flow cytometry
Experimental: Example 4: Co-Stimulation Assay in Lysed Whole Blood; JAK2: GM-CSF Stimulated STATS Phosphorylation and JAK1/TYK2 Stimulated STAT1 Phosphorylation Assay
Human Blood Lysis Using Abcam's RBC Lysis Buffer
Dilute RBC lysis buffer to 1× in distilled water. Add 2 mL blood to 38 mL of 1×RBC-lysis buffer. Incubate for 15 mins at RT, in dark. Spin at 300 g, 5 mins, to collect the pellet. Re-lyse if necessary. Re-suspend pellet in 5 mL of cRPMI.
Compound and Cytokine Treatment
Aliquot 80 μL of lysed human blood in to wells of 96 deep-well plate. Add 10 μl of (10× conc.) of different concentrations of compounds to all wells except controls (unstained and unstimulated) and mix it with the help of 100 uL multichannel. Add 10 uL of RPMI media in controls. For dilution of compounds and dilution range please refer Appendix. Incubate on water bath or CO2 incubator for 1 hour at 37° C. Add 10 μL of (10× conc.) of cytokine mix (GM-CSF and IFNa) (final conc. 10 ng/mL of GM-CSF and 100 ng/mL of IFNa) to each well except unstimulated and unstained controls and incubate further for 20 minutes on water bath at 37° C.
Add 900 μL of prewarmed 1× Fix/Lyse solution (Appendix) and mix it properly using 1000 μl multichannel, incubate further on water bath at 37° C. for 10 minutes (which includes time of addition). Centrifuge at 800× g for 5 minutes at 40° C.; remove 900 uL of supernatant and add 900 μL of 1×PBS. Centrifuge at 800× g for 5 minutes at 40° C., remove 900 μL of supernatant. Wash one more time with 900 μL of PBS (optional) and resuspend pellets in 100 uL of PBS.
Disrupt the pellet by gentle tapping and resuspend in 1000 μL of BD Phosflow Perm Buffer III and incubate plate on ice for 30 minutes. Centrifuge plate at 800× g for 5 minutes at 40° C. Wash two more times with 1000 μL of BD Pharmingen Stain Buffer.
Disrupt the pellet by gentle tapping. Resuspend pellets in 100 uL of Stain Buffer and add 5 μL of pSTAT5_AF488 Ab and 5 uL of pSTAT1_PE in all wells except unstained control and mix properly using 200 μl multichannel, incubate overnight at […]. Add 900 μL of wash buffer and centrifuge at 1800 rpm for 3 minutes at […]. Wash one more time with 1000 μL of BD Pharmingen Stain Buffer. Finally resuspend the pellet in 300 uL of BD Pharmingen Stain Buffer. Transfer the cells to 96-well v-bottom plate and acquire the cells in Beckman Coulter CytExpert. Acquiring cells in Flow Cytometer: Keep the threshold value to 250 and cell concentration should not exceed 100-500 cells/μL. Acquire at least 5,000-10,000 cells.
RPMI 1640 Complete Medium: RPMI 1640 media+10% FBS.
Cytokine dilution: 1) GM-CSF Stock at 100 ug/mL. Prepare an intermediate dilution of 1 ug/mL by adding 2 uL of stock into 198 uL of cRPMI. Further dilute to 100 ng/mL by adding 100 uL of the intermediate stock to 900 uL of cRPMI. 2) IFNa Stock at 200 ug/mL. Dilute IFNa stock 1:200 by adding 5 uL of stock into the 1000 uL of 100 ng/mL GM-CSF working stock as above to give a combined working stock of 1000 ng/mL of IFNa and 100 ng/mL GM-CSF (lox). Keep it on ice until used.
Lyse/Fix buffer preparation: Dilute 5× Lyse/Fix buffer to 1× using MQ water and keep at 37° C. until used.
BD Phosflow perm buffer III: Keep on ice/fridge.

| Structure (SMILES) | pIC50 |
| --- | --- |
| CNc1cc2nc3c(cnn13)C(=O)NCCOc1cc(F)ccc1N2 [Compound 34, (1^3E,1^4E)-3^4-fluoro-1^7-(methylamino)-4-oxa-2,7-diaza-1(5,3)-pyrazolo[1,5-a]pyrimidina-3(1,2)-benzenacyclooctaphan-8-one] | 6.00 to 7.00 |
| CNc1cc2nc3c(cnn13)C(=O)NCCOc1cc(c(F)cc1C)N2 [Compound 39, (1^3E,1^4E)-3^6-fluoro-34-methyl-1^7-(methylamino)-4-oxa-2,7-diaza-1(5,3)-pyrazolo[1,5-a]pyrimidina-3(1,3)-benzenacyclooctaphan-8-one] | 5.00 to 6.00 |
| CNc1cc2nc3c(cnn13)C(=O)NCCOc1cc(ccc1OC)N2 [Compound 31, (1^3E,1^4E)-3^4-methoxy-1^7-(methylamino)-4-oxa-2,7-diaza-1(5,3)-pyrazolo[1,5-a]pyrimidina-3(1,3)-benzenacyclooctaphan-8-one] | 6.00 to 7.00 |
| CNc1cc2nc3c(cnn13)C(=O)NCC(C)Oc1cccc(c1)N2 (stereo not shown) [Compound 37, (1^3E,1^4E)-5-methyl-1^7-(methylamino)-4-oxa-2,7-diaza-1(5,3)-pyrazolo[1,5-a]pyrimidina-3(1,3)-benzenacyclooctaphan-8-one] | 5.00 to 6.00 |
| CNc1cc2nc3c(cnn13)C(=O)NCCOc1cc(F)cc(c1)N2 [Compound 19, (1^3E,1^4E)-3^5-fluoro-1^7-(methylamino)-4-oxa-2,7-diaza-1(5,3)-pyrazolo[1,5-a]pyrimidina-3(1,3)-benzenacyclooctaphan-8-one] | 6.00 to 7.00 |
| CNc1cc2nc3c(cnn13)C(=O)NCCCCOc1cccc(c1)N2 [Compound 35, (1^3E,1^4E)-1^7-(methylamino)-4-oxa-2,9-diaza-1(5,3)-pyrazolo[1,5-a]pyrimidina-3(1,3)-benzenacyclodecaphan-10-one] | 6.00 to 7.00 |
| CNc1cc2nc3c(cnn13)C(=O)NCC(C)(C)c1cccc(c1)N2 [Compound 13, (1^3E,1^4E)-4,4-dimethyl-1^7-(methylamino)-2,6-diaza-1(5,3)-pyrazolo[1,5-a]pyrimidina-3(1,3)-benzenacycloheptaphan-7-one] | ≥ 6.30 |
| CNc1cc2nc3c(cnn13)C(=O)NC(C)COc1ccccc1N2 (stereo not shown) [Compound 36, (1^3E,1^4E)-6-methyl-1^7-(methylamino)-4-oxa-2,7-diaza-1(5,3)-pyrazolo[1,5-a]pyrimidina-3(1,2)-benzenacyclooctaphan-8-one] | 6.00 to 7.00 |
| CNc1cc2nc3c(cnn13)C(=O)NCCOc1cc(cc(F)c1F)N2 [Compound 28, (1^3E,1^4E)-3^4,3^5-difluoro-1^7-(methylamino)-4-oxa-2,7-diaza-1(5,3)-pyrazolo[1,5-a]pyrimidina-3(1,3)-benzenacyclooctaphan-8-one] | 6.00 to 7.00 |
| CNc1cc2nc3c(cnn13)C(=O)NCCOc1ccc(F)c(c1)N2 [Compound 22, (1^3E,1^4E)-3^6-fluoro-1^7-(methylamino)-4-oxa-2,7-diaza-1(5,3)-pyrazolo[1,5-a]pyrimidina-3(1,3)-benzenacyclooctaphan-8-one] | 6.00 to 7.00 |
| [2H]C([2H])([2H])Nc1cc2nc3c(cnn13)C(=O)NCCOc1cccc(c1)N2 [Compound 14, (1^3E,1^4E)-1^7-((methyl-d3)amino)-4-oxa-2,7-diaza-1(5,3)-pyrazolo[1,5-a]pyrimidina-3(1,3)-benzenacyclooctaphan-8-one] | ≥ 6.30 |
| CNc1cc2nc3c(cnn13)C(=O)NCCCc1csc(n1)N2 [Compound 43, (1^2Z,3^3E,3^4E)-3^7-(methylamino)-2,5-diaza-1(2,4)-thiazola-3(5,3)-pyrazolo[1,5-a]pyrimidinacyclooctaphan-4-one] | 5.00 to 6.00 |
| CNc1cc2nc3c(cnn13)C(=O)NCCCOc1ccc(F)cc1N2 [Compound 46, (1^3E,1^4E)-3^5-fluoro-1^7-(methylamino)-4-oxa-2,8-diaza-1(5,3)-pyrazolo[1,5-a]pyrimidina-3(1,2)-benzenacyclononaphan-9-one] | 5.00 to 6.00 |
| CNc1cc2nc3c(cnn13)C(=O)NCCCn1cc(cn1)N2 [Compound 45, (1^3E,1^4E,3^4E)-1^7-(methylamino)-31H-2,7-diaza-1(5,3)-pyrazolo[1,5-a]pyrimidina-3(4,1)-pyrazolacyclooctaphan-8-one] | 5.00 to 6.00 |
| CNc1cc2nc3c(cnn13)C(=O)NCCOc1cccc(c1)N2 [Compound 7, (1^3E,1^4E)-1^7-(methylamino)-4-oxa-2,7-diaza-1(5,3)-pyrazolo[1,5-a]pyrimidina-3(1,3)-benzenacyclooctaphan-8-one] | ≥ 6.30 |
| CNc1cc2nc3c(cnn13)C(=O)NCCCc1cc(O)cc(c1)N2 [Compound 38, (1^3E,1^4E)-3^5-hydroxy-1^7-(methylamino)-2,7-diaza-1(5,3)-pyrazolo[1,5-a]pyrimidina-3(1,3)-benzenacyclooctaphan-8-one] | 5.00 to 6.00 |
| [2H]C([2H])([2H])Nc1cc2nc3c(cnn13)C(=O)NCCCc1cccc(c1)N2 [Compound 24, (1^3E,1^4E)-1^7-((methyl-d3)amino)-2,7-diaza-1(5,3)-pyrazolo[1,5-a]pyrimidina-3(1,3)-benzenacyclooctaphan-8-one] | 6.00 to 7.00 |
| CNc1cc2nc3c(cnn13)C(=O)NCCOc1cc(ccc1Cl)N2 [Compound 23, (1^3E,1^4E)-3^4-chloro-1^7-(methylamino)-4-oxa-2,7-diaza-1(5,3)-pyrazolo[1,5-a]pyrimidina-3(1,3)-benzenacyclooctaphan-8-one] | 6.00 to 7.00 |
| CNc1cc2nc3c(cnn13)C(=O)NC(C)COc1cccc(c1)N2 (stereo not shown) [Compound 25, (1^3E,1^4E)-6-methyl-1^7-(methylamino)-4-oxa-2,7-diaza-1(5,3)-pyrazolo[1,5-a]pyrimidina-3(1,3)-benzenacyclooctaphan-8-one] | 6.00 to 7.00 |
| CNc1cc2nn3c(cnc13)C(=O)NCCOc1cccc(c1)N2 [Compound 12, (E)-1^8-(methylamino)-4-oxa-2,7-diaza-1(6,3)-imidazo[1,2-b]pyridazina-3(1,3)-benzenacyclooctaphan-8-one] | 6.00 to 7.00 |
| CNc1cc2nc3c(cnn13)C(=O)NCC(C)Oc1ccccc1N2 (stereo not shown) [Compound 30, (1^3E,1^4E)-5-methyl-1^7-(methylamino)-4-oxa-2,7-diaza-1(5,3)-pyrazolo[1,5-a]pyrimidina-3(1,2)-benzenacyclooctaphan-8-one] | 6.00 to 7.00 |
| CNc1cc2nc3c(cnn13)C(=O)NCCn1cc(cn1)N2 [Compound 47, (1^3E,1^4E,3^4E)-1^7-(methylamino)-31H-2,6-diaza-1(5,3)-pyrazolo[1,5-a]pyrimidina-3(4,1)-pyrazolacycloheptaphan-7-one] | 5.00 to 6.00 |
| CNc1cc2nc3c(cnn13)C(=O)NCCc1cccc(n1)N2 [Compound 42, (1^3E,1^4E)-1^7-(methylamino)-2,6-diaza-1(5,3)-pyrazolo[1,5-a]pyrimidina-3(2,6)-pyridinacycloheptaphan-7-one] | 5.00 to 6.00 |
| CNc1cc2nc3c(cnn13)C(=O)NCCOc1cc(c(F)cc1F)N2 [Compound 29, (1^5E,1^4E)-3^4,3^6-difluoro-1^7-(methylamino)-4-oxa-2,7-diaza-1(5,3)-pyrazolo[1,5-a]pyrimidina-3(1,3)-benzenacyclooctaphan-8-one] | 6.00 to 7.00 |
| CNc1cc2nc3c(cnn13)C(=O)NCCOc1cc(c(Cl)cc1Cl)N2 [Compound 27, (1^3E,1^4E)-3^4,3^6-dichloro-1^7-(methylamino)-4-oxa-2,7-diaza-1(5,3)-pyrazolo[1,5-a]pyrimidina-3(1,3)-benzenacyclooctaphan-8-one] | 6.00 to 7.00 |
